Laboratory results as given in US7531545B2, “2-amino-3,4-dihydro-pyrido[3,4-d]pyrimidine derivatives useful as inhibitors of β-secretase (BACE)” (Janssen Pharmaceutica, N.V., priority 2005, dated 2009).
pIC50: −log10 of the molar value. Counter-ions that a name gives are not always drawn. Like-named read-outs stand apart in the source and are kept apart here.

Target: human BACE-1 (Homo sapiens, UniProt P56817)
Test: CEREP BACE Inhibition Assay
Format: biochemical
Conditions: for inhibition at 1 µM: read-out: % Inhibition @ 1.0 μM; for pIC50: read-out: IC50
Protocol: More specifically the assay, run at 50 μL in a 96 well plate, evaluated the effect of test compound on the activity of the human BACE-1 quantified by measuring the formation of Mca-S-E-V-N-L-NH2 from […], using a recombinant enzyme. The test compound, reference compound or water (control) were added to a buffer containing 0.09 M sodium acetate (pH 4.5) and 0.25 μg BACE-1. Compound interference with the fluorimetric detection method due to autofluorescence was then checked by measurements at the wavelengths defined to evaluate the enzyme activity. […] For control basal measurement, the substrate was omitted from the reaction mixture. […] The standard inhibitory reference compound was OM99-2, which was tested in each experiment at several concentrations to obtain an inhibition curve from which its IC50 value was calculated.

[1] = 1.0 μM, percent inhibition of the control activity, recombinant enzyme
[2] = percent inhibition of the control activity, recombinant enzyme

Sequence of human BACE-1 (P56817 46-501): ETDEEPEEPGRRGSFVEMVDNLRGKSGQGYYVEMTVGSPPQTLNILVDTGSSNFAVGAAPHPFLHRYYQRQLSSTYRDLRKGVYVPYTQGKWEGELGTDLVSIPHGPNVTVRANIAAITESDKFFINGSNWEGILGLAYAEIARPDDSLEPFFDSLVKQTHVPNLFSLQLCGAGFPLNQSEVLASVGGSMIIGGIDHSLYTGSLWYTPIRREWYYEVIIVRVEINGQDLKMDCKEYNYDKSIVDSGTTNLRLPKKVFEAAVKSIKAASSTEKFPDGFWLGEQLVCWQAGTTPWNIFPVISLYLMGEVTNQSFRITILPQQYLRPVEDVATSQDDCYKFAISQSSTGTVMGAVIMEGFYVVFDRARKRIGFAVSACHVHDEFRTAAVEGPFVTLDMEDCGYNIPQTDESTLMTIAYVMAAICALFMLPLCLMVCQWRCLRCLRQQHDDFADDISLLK

Q: Which inhibition at 1 µM [1] does the source give for `CC(C)=CCOC[C@@H](C(C)C)N1Cc2cc(Oc3ccccc3)ncc2N=C1N` [Compound 233, 3-[2-Methyl-1-(3-methyl-but-2-enyloxymethyl)-propyl]-6-phenoxy-3,4-dihydro-pyrido[3,4-d]pyrimidin-2-ylamine] here?
A: Its inhibition at 1 µM is 52%.

Q: And the pIC50 (recombinant enzyme)?
A: The pIC50 was 6.06.

Q: What does the source list for `CC(C)(C)OCCN(Cc1ccc(F)cc1)C(=O)CC[C@@H](C1CCCCC1)N1Cc2cc(Oc3ccccc3)ncc2N=C1N` [Compound 158]?
A: inhibition at 1 µM [1]: 102%; pIC50 (recombinant enzyme): 6.89

Q: Which inhibition at 1 µM [1] does the source give for `CC(C)[C@H](CCC(=O)OCc1ccccc1)N1Cc2cc(Oc3ccccc3)ncc2N=C1N` [Compound 231, 4-(2-Amino-6-phenoxy-4H-pyrido[3,4-d]pyrimidin-3-yl)-5-methyl-hexanoic acid benzyl ester] here?
A: The inhibition at 1 µM was 97%.

Q: And the pIC50 (recombinant enzyme)?
A: The pIC50 was 6.89.

Q: `COC(=O)[C@@H](COCc1ccccc1)NC(=O)CC[C@@H](C(C)C)N1Cc2cc(Oc3ccccc3)ncc2N=C1N` [Compound 53] was tested. Which inhibition at 0.3 µM [2] did it give?
A: The inhibition at 0.3 µM was 95%.

Q: What about the pIC50 (recombinant enzyme) of the same molecule?
A: Its pIC50 is 6.85.

Q: `CC(C)(C)c1cn(C[C@@H](C2CCCCC2)N2Cc3cc(Oc4ccccc4)ncc3N=C2NO)nn1` [Compound 246, N-{3-[2-(4-tert-Butyl-[1,2,3]triazol-1-yl)-1-(R)-cyclohexyl-ethyl]-6-phenoxy-3,4-dihydro-pyrido[3,4-d]pyrimidin-2-yl}-hydroxylamine] was tested. Which inhibition at 10 µM (10.0 μM, percent inhibition of the control activity, recombinant enzyme) did it give?
A: Its inhibition at 10 µM is 94%.

Q: What does the source list for `CN(CCC[C@@H](C1CCCCC1)N1Cc2cc(Oc3ccccc3)ncc2N=C1N)C1CCCCC1` [Compound 187]?
A: inhibition at 1 µM [1]: 99%; pIC50 (recombinant enzyme): 7.36

Q: `COC(=O)[C@@H](COC(C)(C)C)NC(=O)CC[C@@H](C1CCCCC1)N1Cc2cc(Oc3ccccc3)ncc2N=C1N` [Compound 63, 2-[4-(2-Amino-6-phenoxy-4H-pyrido[3,4-d]pyrimidin-3-yl)-4-(S)-cyclohexyl-butyryl-(R)-amino]-3-tert-butoxy-propionic acid methyl ester] was tested. Which inhibition at 0.3 µM [2] did it give?
A: Its inhibition at 0.3 µM is 94%.

Q: What about the pIC50 (recombinant enzyme) of the same molecule?
A: The pIC50 was 6.72.

Q: With `NC1=Nc2cnc(Oc3ccccc3)cc2CN1[C@@H](CCC(=O)N(Cc1ccncc1)C1CCCCC1)C1CCCCC1` [Compound 79] as the molecule, how does the inhibition at 0.3 µM [2] read?
A: The inhibition at 0.3 µM was 88%.

Q: And the pIC50 (recombinant enzyme)?
A: The pIC50 was 6.82.

Q: How did the inhibition at 0.3 µM [2] turn out when `CC(C)[C@H](CCC(=O)N[C@H](COC(C)(C)C)C(=O)N1CCCCC1)N1Cc2cc(Oc3ccccc3)ncc2N=C1N` [Compound 98] was run?
A: Its inhibition at 0.3 µM is 72%.

Q: What about the pIC50 (recombinant enzyme) of the same molecule?
A: The pIC50 was 6.82.

Q: With `CC(C)(C)OCCNC(=O)CC[C@@H](C1CCCCC1)N1Cc2cc(Oc3ccccc3)ncc2N=C1N` [Compound 181] as the molecule, how does the inhibition at 1 µM [1] read?
A: Its inhibition at 1 µM is 96%.

Q: And the pIC50 (recombinant enzyme)?
A: The pIC50 was 7.07.

Q: What does the source list for `CC(C)(C)CCN(Cc1ccncc1)C(=O)CC[C@@H](C1CCCCC1)N1Cc2cc(Oc3ccccc3)ncc2N=C1N` [Compound 137]?
A: inhibition at 1 µM [1]: 101%; pIC50 (recombinant enzyme): 6.77

Q: For `CC(C)[C@H](CCC(=O)N[C@@H](COC(C)(C)C)CN1CCCCC1)N1Cc2cc(Oc3ccccc3)ncc2N=C1N` [Compound 101], which inhibition at 0.3 µM [2] is on record?
A: The inhibition at 0.3 µM was 43%.

Q: And the pIC50 (recombinant enzyme)?
A: Its pIC50 is 6.49.

Q: Which results are given for `NC1=Nc2cnc(Oc3ccccc3)cc2CN1[C@@H](CCC(=O)N1CCOCC1)C1CCCCC1` [Compound 166]?
A: inhibition at 1 µM [1]: 85%; pIC50 (recombinant enzyme): 6.70

Q: What does the source list for `CC(C)(C)OC[C@H](CN1CCOCC1)NC(=O)CC[C@@H](C1CCCCC1)N1Cc2cc(Oc3ccccc3)ncc2N=C1N` [Compound 102, 4-(2-Amino-6-phenoxy-4H-pyrido[3,4-d]pyrimidin-3-yl)-N-(2-(R)-tert-butoxy-1-morpholin-4-ylmethyl-ethyl)-4-(S)-cyclohexyl-butyramide]?
A: inhibition at 0.3 µM [2]: 55%; pIC50 (recombinant enzyme): 6.34

Q: How did the inhibition at 0.3 µM [2] turn out when `CC(C)[C@H](CCC(=O)N(CC(=O)O)C1CCCCC1)N1Cc2cc(Oc3ccccc3)ncc2N=C1N` [Compound 86] was run?
A: Its inhibition at 0.3 µM is 99%.

Q: What about the pIC50 (recombinant enzyme) of the same molecule?
A: Its pIC50 is 6.92.

Q: For `CC(C)CNC(=O)CC[C@@H](C1CCCCC1)N1Cc2cc(Oc3ccccc3)ncc2N=C1N` [Compound 208], which inhibition at 1 µM [1] is on record?
A: The inhibition at 1 µM was 98%.

Q: And the pIC50 (recombinant enzyme)?
A: The pIC50 was 6.89.

Q: Which inhibition at 1 µM [1] does the source give for `CC(C)(C)CCN(CCNC(=O)OC(C)(C)C)C(=O)CC[C@@H](C1CCCCC1)N1Cc2cc(Oc3ccccc3)ncc2N=C1N` [Compound 145] here?
A: The inhibition at 1 µM was 99%.

Q: What about the pIC50 (recombinant enzyme) of the same molecule?
A: Its pIC50 is 7.24.

Q: What does the source list for `NC1=Nc2cnc(Oc3ccccc3)cc2CN1[C@@H](CCC(=O)N(CCO)Cc1cccs1)C1CCCCC1` [Compound 141]?
A: inhibition at 1 µM [1]: 98%; pIC50 (recombinant enzyme): 6.92

Q: Which inhibition at 1 µM [1] does the source give for `NC1=Nc2cnc(Oc3ccccc3)cc2CN1[C@@H](CCn1cc(C2CCCCC2)nn1)C1CCCCC1` [Compound 198, 3-[—(S)-cyclohexyl-3-(4-cyclohexyl-[1,2,3]triazol-1-yl)-propyl]-6-phenoxy-3,4-dihydro-pyrido[3,4-d]pyrimidin-2-ylamine] here?
A: The inhibition at 1 µM was 95%.

Q: What about the pIC50 (recombinant enzyme) of the same molecule?
A: Its pIC50 is 6.85.

Q: For `CN(C(=O)CC[C@@H](C1CCOCC1)N1Cc2cc(Oc3ccccc3)ncc2N=C1N)[C@H](COC(C)(C)C)C(=O)O` [Compound 60], which inhibition at 0.3 µM [2] is on record?
A: The inhibition at 0.3 µM was 91%.

Q: What about the pIC50 (recombinant enzyme) of the same molecule?
A: The pIC50 was 7.00.

Q: For `CC(C)C(COCC1CC(C2CCCCC2)=NO1)N1Cc2cc(Oc3ccccc3)ncc2N=C1N` (centres unmarked) [Compound 235], which IC50 (IC50 (μM), recombinant enzyme) is on record?
A: The IC50 was 0.61 µM.

Q: And the inhibition at 1 µM?
A: The inhibition at 1 µM was 59%.

Q: With `CC(C)(C)CNC(=O)CC[C@@H](C1CCCCC1)N1Cc2cc(Oc3ccccc3)ncc2N=C1N` [Compound 204] as the molecule, how does the inhibition at 1 µM [1] read?
A: The inhibition at 1 µM was 100%.

Q: What about the pIC50 (recombinant enzyme) of the same molecule?
A: The pIC50 was 7.11.

Q: With `CC(C)(C)CNC(=O)CC[C@@H](C1CCCCC1)N1Cc2cc(Oc3ccccc3)ncc2N=C1N` [Compound 160] as the molecule, how does the “% Inhibition @ 1.0 μM” value [1] read?
A: The value was 101%.

Q: And the pIC50 (recombinant enzyme)?
A: Its pIC50 is 7.18.

Q: How did the inhibition at 1 µM [1] turn out when `C[C@H](CO)N(C)C(=O)CC[C@@H](C1CCCCC1)N1Cc2cc(Oc3ccccc3)ncc2N=C1N` [Compound 183] was run?
A: Its inhibition at 1 µM is 70%.

Q: And the pIC50 (recombinant enzyme)?
A: The pIC50 was 6.24.

Q: What does the source list for `CC(C)(C)c1cn(C[C@@H](C2CCCCC2)N2Cc3cc(Oc4ccccc4)ncc3N=C2N)nn1` [Compound 152, 3-[2-(4-tert-Butyl-[1,2,3]triazol-1-yl)-1-(R)-cyclohexyl-ethyl]-6-phenoxy-3,4-dihydro-pyrido[3,4-d]pyrimidin-2-ylamine]?
A: inhibition at 1 µM [1]: 99%; pIC50 (recombinant enzyme): 7.06

Q: Which results are given for `CC(C)[C@H](COCc1cc(C(C)(C)C)no1)N1Cc2cc(Oc3ccccc3)ncc2N=C1N` [Compound 237]?
A: inhibition at 1 µM [1]: 87%; pIC50 (recombinant enzyme): 6.57

Q: How did the inhibition at 0.3 µM [2] turn out when `NC1=Nc2cnc(Oc3ccccc3)cc2CN1[C@@H](CCC(=O)N(Cc1ncc[nH]1)C1CCCCC1)C1CCCCC1` [Compound 78, 4-(2-Amino-6-phenoxy-4H-pyrido[3,4-d]pyrimidin-3-yl)-4-(S),N-dicyclohexyl-N-(1H-imidazol-2-ylmethyl)-butyramide] was run?
A: Its inhibition at 0.3 µM is 91%.

Q: What about the pIC50 (recombinant enzyme) of the same molecule?
A: The pIC50 was 6.72.

Q: Which results are given for `CC(C)(C)CCNC(=O)C[C@@H](C1CCCCC1)N1Cc2cc(Oc3ccccc3)ncc2N=C1N` [Compound 202, 3-(2-Amino-6-phenoxy-4H-pyrido[3,4-d]pyrimidin-3-yl)-3(S)-cyclohexyl-N-(3,3-dimethyl-butyl)-propionamide hydrochloride salt]?
A: % Inhibition @ 1.0 μM (1.0 μM, percent inhibition of the control activity, recombinant enzyme, hydrochloride salt): 73%; inhibition at 1 µM [1]: 88%; pIC50 (recombinant enzyme): 6.66

Q: With `CC(C)(C)CNC(=O)CC[C@@H](CC1CCOCC1)N1Cc2cc(Oc3ccccc3)ncc2N=C1N` [Compound 219] as the molecule, how does the inhibition at 1 µM [1] read?
A: Its inhibition at 1 µM is 64%.

Q: And the pIC50 (recombinant enzyme)?
A: Its pIC50 is 6.19.

Q: For `NC1=Nc2cnc(Oc3ccccc3)cc2CN1[C@@H](CCC(=O)NC[C@H]1CCCO1)C1CCCCC1` [Compound 210], which inhibition at 1 µM [1] is on record?
A: The inhibition at 1 µM was 98%.

Q: What about the pIC50 (recombinant enzyme) of the same molecule?
A: The pIC50 was 6.92.

Q: Which results are given for `C[C@@H](OCc1ccccc1)[C@H](CCC(=O)N(CCC(C)(C)C)Cc1ccncc1)N1Cc2cc(Oc3ccccc3)ncc2N=C1N` [Compound 185, 4-(S)-(2-Amino-6-phenoxy-4H-pyrido[3,4-d]pyrimidin-3-yl)-5-(R)-benzyloxy-hexanoic acid (3,3-dimethyl-butyl)-pyridin-4-ylmethyl-amide]?
A: inhibition at 1 µM [1]: 85%; pIC50 (recombinant enzyme): 6.57
